Assay: xn = mol fraction of the nth substance listed
Settings: Liquid, x1 = 1

C1CCCCC1 [cyclohexane] + CCCCCCCCC
mass density [kg/m3]
Settings	298.15 K	308.15 K	318.15 K	328.15 K
100 kPa	773.8	764.4	754.8	745.4
101 kPa	773.8	764.38	754.99	745.55
2130 kPa	775.5	766.2	756.7	746.6
4150 kPa	777.2	767.9	758.7	749.6
6180 kPa	778.8	769.7	760.6	751.6
8210 kPa	780.4	771.4	762.4	753.6
10230 kPa	782	773.1	764.2	755.5
11250 kPa	782.8	773.9	765.1	756.4
12260 kPa	783.5	774.7	766	757.4
14290 kPa	785	776.4	767.7	759.2
16310 kPa	786.5	777.9	769.4	761
18340 kPa	788	779.5	771.1	762.8
20370 kPa	789.4	781	772.7	764.5
22390 kPa	790.9	782.5	774.3	766.2
24420 kPa	792.2	784	775.8	767.9
26450 kPa	793.6	785.5	777.3	769.6
28470 kPa	794.9	786.9	778.8	771.2
29490 kPa	795.6	787.6	779.6	772
30500 kPa	796.1	788.3	780.3	772.7
32530 kPa	797.5	789.7	781.7	774.3
34550 kPa	798.7	791	783.2	775.8
36580 kPa	800	792.4	784.6	777.3
38600 kPa	801.2	793.7	786	778.8
39620 kPa	801.7	794.3	786.7	779.4

Source: the NIST ThermoML archive (doi:10.1016/j.jct.2007.04.005)
